This passage reports IC50 results from doi:10.1101/208439v1 (biorxiv, 2017).

One test concerns the target T1, PRMT8 (Homo sapiens, UniProt Q9NR22).
T1 construct: residues 61-394, N- and C-terminal His tags, E. coli
As to the kind of experiment: HotSpot [3H]SAM filter-binding methyltransferase assay. Type of test: biochemical.

Another test addresses T2, NSD2 (Homo sapiens, UniProt O96028, E1099K).
T2 construct: full length (residues 2-1365), N-terminal His tag, insect cell/baculovirus
T2 sequence (O96028 2-1365 E1099K): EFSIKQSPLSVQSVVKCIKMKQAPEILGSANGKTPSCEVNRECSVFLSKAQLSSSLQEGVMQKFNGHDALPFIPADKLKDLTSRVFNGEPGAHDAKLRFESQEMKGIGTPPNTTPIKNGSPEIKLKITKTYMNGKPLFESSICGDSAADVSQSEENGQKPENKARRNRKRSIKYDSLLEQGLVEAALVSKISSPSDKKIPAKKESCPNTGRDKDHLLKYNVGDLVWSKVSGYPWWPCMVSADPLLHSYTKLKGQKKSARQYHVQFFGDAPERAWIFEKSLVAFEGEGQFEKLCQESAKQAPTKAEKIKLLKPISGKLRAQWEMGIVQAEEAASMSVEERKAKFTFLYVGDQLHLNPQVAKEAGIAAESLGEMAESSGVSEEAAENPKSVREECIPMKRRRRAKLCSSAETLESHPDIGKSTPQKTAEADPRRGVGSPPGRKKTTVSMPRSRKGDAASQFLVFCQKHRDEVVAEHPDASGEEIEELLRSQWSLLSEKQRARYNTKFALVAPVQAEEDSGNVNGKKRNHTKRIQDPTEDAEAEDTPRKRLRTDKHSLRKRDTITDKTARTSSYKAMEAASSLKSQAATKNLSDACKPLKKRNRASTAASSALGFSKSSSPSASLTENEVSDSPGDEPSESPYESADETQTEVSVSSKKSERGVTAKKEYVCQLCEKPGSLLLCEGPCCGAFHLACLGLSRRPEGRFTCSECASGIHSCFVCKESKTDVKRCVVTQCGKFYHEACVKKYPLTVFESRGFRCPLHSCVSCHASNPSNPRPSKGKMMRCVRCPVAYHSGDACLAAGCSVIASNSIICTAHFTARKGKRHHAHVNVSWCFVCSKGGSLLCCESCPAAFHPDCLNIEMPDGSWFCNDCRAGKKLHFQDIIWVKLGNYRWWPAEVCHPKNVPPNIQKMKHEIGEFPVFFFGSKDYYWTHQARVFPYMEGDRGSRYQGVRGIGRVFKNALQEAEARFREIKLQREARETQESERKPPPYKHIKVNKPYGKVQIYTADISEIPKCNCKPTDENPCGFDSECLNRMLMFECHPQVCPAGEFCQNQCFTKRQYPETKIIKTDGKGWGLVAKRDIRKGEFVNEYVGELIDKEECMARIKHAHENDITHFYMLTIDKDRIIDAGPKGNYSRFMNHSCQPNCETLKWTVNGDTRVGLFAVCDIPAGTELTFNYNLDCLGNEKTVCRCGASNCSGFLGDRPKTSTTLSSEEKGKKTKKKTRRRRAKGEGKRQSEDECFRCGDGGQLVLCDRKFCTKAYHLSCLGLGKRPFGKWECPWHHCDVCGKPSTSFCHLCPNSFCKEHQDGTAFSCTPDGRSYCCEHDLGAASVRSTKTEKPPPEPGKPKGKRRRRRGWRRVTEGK
Kind of test: biochemical. The arrangement: MTase-Glo bioluminescence methyltransferase assay, full-length NSD2 with HeLa nucleosomes. To be noted: read-out: MTase-Glo IC50. From the text:
A major challenge in screening for small molecule inhibitors is that native NSD2 requires nucleosomes as a substrate ([17]). […] Chemical libraries were screened in 3-dose point quantitative high-throughput screening (qHTS) format ([43]) with the Methyltransferase-Glo (MTase-Glo™) methyltransferase bioluminescence assay ([44]). A number of counter and orthogonal assays were also developed to characterize the hits from the primary screen. Confirmed hits were validated with a radiolabeled SAM substrate-based NSD2 activity assay and further interrogated with binding studies by surface plasmon resonance (SPR), methyltransferase profiling, and activity assessments in U-2 OS cells. […] Overall the reaction conditions were very similar.

In the next test the target is SET1b Complex (Homo sapiens, UniProt Q9UPS6). Kind of test: HotSpot [3H]SAM filter-binding methyltransferase assay. In kind it is biochemical. Set-up: gene SETD1B; complex assembled as MLL1; SET1B N-terminal GST tag, E. coli; with WD repeat-containing protein 5; Set1/Ash2 histone methyltransferase complex subunit ASH2; Protein dpy-30 homolog.
SET1b Complex, sequence (Q15291 whole entry, the tested form may be a part): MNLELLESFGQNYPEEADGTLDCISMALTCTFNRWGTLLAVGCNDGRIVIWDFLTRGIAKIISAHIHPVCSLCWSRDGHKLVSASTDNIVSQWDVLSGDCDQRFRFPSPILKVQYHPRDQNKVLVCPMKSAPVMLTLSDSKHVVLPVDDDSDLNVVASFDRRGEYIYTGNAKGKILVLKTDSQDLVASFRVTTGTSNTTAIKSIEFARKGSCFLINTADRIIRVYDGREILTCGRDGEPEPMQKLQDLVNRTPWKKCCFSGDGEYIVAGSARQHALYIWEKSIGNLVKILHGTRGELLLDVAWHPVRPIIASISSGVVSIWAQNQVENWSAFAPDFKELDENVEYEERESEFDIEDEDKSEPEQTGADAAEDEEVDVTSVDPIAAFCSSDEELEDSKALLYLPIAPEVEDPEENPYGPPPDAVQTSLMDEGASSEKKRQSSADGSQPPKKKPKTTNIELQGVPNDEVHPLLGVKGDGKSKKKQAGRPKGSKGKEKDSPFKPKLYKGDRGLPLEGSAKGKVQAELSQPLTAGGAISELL
SET1b Complex, sequence (Q9UPS6 1672-1966): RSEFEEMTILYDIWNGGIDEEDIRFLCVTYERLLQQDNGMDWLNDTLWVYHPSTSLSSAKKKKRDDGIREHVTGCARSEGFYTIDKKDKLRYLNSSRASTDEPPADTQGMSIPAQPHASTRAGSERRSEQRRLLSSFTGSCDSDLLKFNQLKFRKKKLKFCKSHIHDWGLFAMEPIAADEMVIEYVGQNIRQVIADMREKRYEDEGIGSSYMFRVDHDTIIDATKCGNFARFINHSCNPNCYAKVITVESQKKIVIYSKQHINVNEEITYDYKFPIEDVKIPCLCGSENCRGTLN
SET1b Complex, sequence (Q9C005 whole entry, further chain, the tested form may be a part): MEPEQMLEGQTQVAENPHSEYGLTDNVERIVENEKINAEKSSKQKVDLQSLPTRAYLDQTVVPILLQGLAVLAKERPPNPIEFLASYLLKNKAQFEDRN
SET1b Complex, sequence (Q9UBL3 96-628, further chain): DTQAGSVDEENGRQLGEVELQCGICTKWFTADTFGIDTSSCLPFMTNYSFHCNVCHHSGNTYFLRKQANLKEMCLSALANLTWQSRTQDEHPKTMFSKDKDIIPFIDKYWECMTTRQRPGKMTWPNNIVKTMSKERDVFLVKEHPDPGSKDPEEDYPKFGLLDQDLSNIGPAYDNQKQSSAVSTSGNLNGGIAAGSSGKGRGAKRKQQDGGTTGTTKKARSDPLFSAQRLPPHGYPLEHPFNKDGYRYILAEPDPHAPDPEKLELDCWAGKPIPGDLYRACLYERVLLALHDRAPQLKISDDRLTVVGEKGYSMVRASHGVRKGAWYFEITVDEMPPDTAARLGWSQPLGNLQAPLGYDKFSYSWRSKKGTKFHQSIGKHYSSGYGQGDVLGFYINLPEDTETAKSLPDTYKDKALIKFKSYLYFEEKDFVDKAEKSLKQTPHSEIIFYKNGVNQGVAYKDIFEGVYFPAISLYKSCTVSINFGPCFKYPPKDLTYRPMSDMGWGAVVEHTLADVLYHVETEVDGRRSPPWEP
A further test concerns the target PRMT3 (Homo sapiens, UniProt O60678). Described as above. In kind it is biochemical. Set-up: residues 2-531, N-terminal His tag, E. coli.
The next test concerns the target DNMT3b/3L (Homo sapiens, UniProt Q9UBC3). As to the kind of experiment: biochemical.
Another test addresses T3, SET7/9 (Homo sapiens, UniProt Q8WTS6).
T3 construct: gene SETD7
T3 sequence (Q8WTS6 1-366): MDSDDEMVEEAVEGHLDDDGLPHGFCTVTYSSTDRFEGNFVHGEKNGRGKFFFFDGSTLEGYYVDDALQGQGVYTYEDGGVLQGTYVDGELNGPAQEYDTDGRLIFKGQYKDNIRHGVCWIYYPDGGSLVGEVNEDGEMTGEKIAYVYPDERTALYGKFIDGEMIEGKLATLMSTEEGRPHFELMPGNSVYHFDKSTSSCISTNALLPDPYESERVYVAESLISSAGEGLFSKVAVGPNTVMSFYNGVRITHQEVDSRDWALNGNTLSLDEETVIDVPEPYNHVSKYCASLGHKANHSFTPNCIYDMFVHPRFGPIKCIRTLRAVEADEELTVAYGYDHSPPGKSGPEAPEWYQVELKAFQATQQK
Kind of test: biochemical.

The mark [1] stands for this setting: read-out: DA3003-1 IC50, inhibitor.
[2] abbreviates: histone H4, […] SAM, pH […] MgCl2, […] DTT, […] °C, single experiment.

Read-outs that look alike come from different tables or passages of the source.

Broadly, the IC50 is the point on the concentration scale where inhibition reaches its midpoint.

T1 sequence (Q9NR22 61-394): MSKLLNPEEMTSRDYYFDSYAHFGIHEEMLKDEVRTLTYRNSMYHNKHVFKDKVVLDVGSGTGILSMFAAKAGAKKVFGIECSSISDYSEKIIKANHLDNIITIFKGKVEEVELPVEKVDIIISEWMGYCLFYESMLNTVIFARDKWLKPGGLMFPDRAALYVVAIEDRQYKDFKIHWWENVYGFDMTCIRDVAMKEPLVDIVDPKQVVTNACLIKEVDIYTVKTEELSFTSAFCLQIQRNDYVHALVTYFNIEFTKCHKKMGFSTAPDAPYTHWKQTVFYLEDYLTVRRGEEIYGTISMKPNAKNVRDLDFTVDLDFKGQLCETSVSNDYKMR
PRMT3, sequence (O60678 2-531): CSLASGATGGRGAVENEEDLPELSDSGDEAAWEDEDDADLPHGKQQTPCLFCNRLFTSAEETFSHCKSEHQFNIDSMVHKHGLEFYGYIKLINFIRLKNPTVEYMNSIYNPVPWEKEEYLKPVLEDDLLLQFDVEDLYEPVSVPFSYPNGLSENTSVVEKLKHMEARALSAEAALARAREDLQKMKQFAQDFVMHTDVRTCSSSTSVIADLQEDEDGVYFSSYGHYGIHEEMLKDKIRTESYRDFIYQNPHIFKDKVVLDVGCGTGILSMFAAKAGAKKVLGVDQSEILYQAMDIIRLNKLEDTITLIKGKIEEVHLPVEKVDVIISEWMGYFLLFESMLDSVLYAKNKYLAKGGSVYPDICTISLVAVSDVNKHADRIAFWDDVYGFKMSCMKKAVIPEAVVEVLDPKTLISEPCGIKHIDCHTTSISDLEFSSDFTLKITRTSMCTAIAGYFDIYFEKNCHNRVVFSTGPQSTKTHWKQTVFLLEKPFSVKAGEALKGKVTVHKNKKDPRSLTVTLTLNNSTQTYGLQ

On to `CC1(C)CCC(CN2CCN(c3ccc(C(=O)NS(=O)(=O)c4ccc(NCC5CCOCC5)c([N+](=O)[O-])c4)c(Oc4cnc5[nH]ccc5c4)c3)CC2)=C(c2ccc(Cl)cc2)C1` [ABT-199], for which the IC50 turned out to be 34 µM on PRMT8, 15 µM at NSD2, 7.1 µM at SET1b Complex and 36 µM at PRMT3.

In the case of `O=C1C(Cl)=C(NCCN2CCOCC2)C(=O)c2ncccc21` [DA3003-1], the IC50 was 2.8 µM at NSD2 (inhibitor), 0.72 µM at DNMT3b/3L (setting [1]) and 1.4 µM on SET7/9 (setting [1]).

For the compound `COc1cccc(-n2nc(C(=O)O)cc2-c2ccc(C3CCCCC3)c(Cl)c2)c1` [TC LPA5 4], the IC50 stood at 71 µM on PRMT8 (setting [2]); 30 µM against DNMT3b/3L; 8 µM on SET1b Complex (core histone, […] SAM, pH […] MgCl2, […] DTT, […] °C, single experiment); 52 µM against SET7/9; 5.7 µM on PRMT3 (setting [2]).
